Laboratory results reported in patent publication US20050239656A1, “Pyridine compounds or salts thereof and herbicides containing the same” (priority 2002, published 2005).

How the values were obtained:
[1] = system: green foxtail; assay: Test Example 2: soil surface treatment, upland pot test; type: in vivo, Setaria viridis L.; conditions: active ingredient 500 g/ha, observed 20th to 28th day
Summary of the method: (§1)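 Herbicidal effect is given as percent growth control, assessed by eye 20 to 28 days post-spray against untreated plants (0) and full kill (100). Treatment: soil-surface application one day after sowing, formulated product diluted in 1,500 L/ha water, upland soil, 1/170,000 ha pots.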

[2] = system: prickly sida; assay: Test Example 1: foliage treatment, upland pot test; type: in vivo, Sida spinosa L.; conditions: active ingredient 500 g/ha, observed 18th to 23rd day, 0 = non-treated, 100 = complete kill
[3] = system: crabgrass; assay: Test Example 2: soil surface treatment, upland pot test; type: in vivo, Digitaria sanguinalis L.; conditions: active ingredient 500 g/ha, observed 20th to 28th day
Summary of the method: as §1

[4] = system: green foxtail; assay: Test Example 1: foliage treatment, upland pot test; type: in vivo, Setaria viridis L.; conditions: active ingredient 500 g/ha, observed 18th to 23rd day, 0 = non-treated, 100 = complete kill
[5] = system: barnyardgrass; assay: Test Example 3: paddy pot test, application under submerged conditions; type: in vivo, Echinochloa crus-galli L.; conditions: submerged application at 0.5 leaf stage, visually observed 14 days after application, 0 = non-treated, 100 = complete kill
Summary of the method: (§2)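 Seeds were sown in flooded paddy soil (0.5–1 cm water), wapato tubers were planted 1–2 days later, and water was then held at 3–4 cm. Diluted wettable powder or emulsifiable concentrate was pipetted into the water at the 0.5 leaf or primary leaf stage. Growth control was visually scored at 14 days (0–100%).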

[6] = system: rice; assay: Test Example 1: foliage treatment, upland pot test; type: in vivo, Oryza sativa L.; conditions: crop, active ingredient 500 g/ha, observed 18th to 23rd day, 0 = non-treated, 100 = complete kill
Summary of the method: (§3)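 Applied as a post-emergence foliar spray: formulated compound diluted to 500 L/ha with spreader at 0.1% (v/v). Treatment timing—rice at 1.2–2.6, wheat at 1.3–2.4, barnyardgrass at 1.3–2.8, soybean at 0.1–0.4 leaf stage. Scored visually on a 0–100% control scale after 18–23 days.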

[7] = system: barnyardgrass; assay: Test Example 2: soil surface treatment, upland pot test; type: in vivo, Echinochloa crus-galli L.; conditions: active ingredient 500 g/ha, observed 20th to 28th day
Summary of the method: as §1

[8] = system: velvetleaf; assay: Test Example 1: foliage treatment, upland pot test; type: in vivo, Abutilon theophrasti MEDIC.; conditions: active ingredient 500 g/ha, observed 18th to 23rd day, 0 = non-treated, 100 = complete kill
[9] = system: japanese bulrush; assay: Test Example 3: paddy pot test, application under submerged conditions; type: in vivo, Scirpus juncoides; conditions: submerged application at 0.5 leaf stage, visually observed 14 days after application, 0 = non-treated, 100 = complete kill
Summary of the method: as §2

[10] = system: rice; assay: Test Example 2: soil surface treatment, upland pot test; type: in vivo, Oryza sativa L.; conditions: active ingredient 500 g/ha, observed 20th to 28th day
Summary of the method: as §1

[11] = system: barnyardgrass; assay: Test Example 1: foliage treatment, upland pot test; type: in vivo, Echinochloa crus-galli L.; conditions: active ingredient 500 g/ha, observed 18th to 23rd day, 0 = non-treated, 100 = complete kill
Summary of the method: as §3

[12] = system: japanese ribbon wapato; assay: Test Example 3: paddy pot test, application under submerged conditions; type: in vivo, Sagittaria pygniaea; conditions: submerged application at primary leaf stage, visually observed 14 days after application, 0 = non-treated, 100 = complete kill
Summary of the method: as §2

[13] = system: prickly sida; assay: Test Example 2: soil surface treatment, upland pot test; type: in vivo, Sida spinosa L.; conditions: active ingredient 500 g/ha, observed 20th to 28th day
Summary of the method: as §1

[14] = system: soybean; assay: as above; type: in vivo, Glycine max Merr.; conditions: active ingredient 500 g/ha, observed 20th to 28th day
Summary of the method: as §1

[15] = system: rice (var. Nihonbare); assay: Test Example 3: paddy pot test, transplanted rice; type: in vivo, Oryza sativa L.; conditions: applied 4th day after transplantation, visually observed 21st day after application, 0 = non-treated, 100 = complete kill
Summary of the method: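 Rice (2-leaf stage) was transplanted 3 cm deep into puddled, leveled paddy soil under 3–4 cm flooding. On day 4 after transplanting, diluted wettable powder or emulsifiable concentrate was pipetted onto the water at a predetermined active-ingredient dose. Growth control (0 = untreated, 100 = complete kill) was scored visually 21 days later.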

[16] = system: corn; assay: Test Example 1: foliage treatment, upland pot test; type: in vivo, Zea mays L.; conditions: crop, active ingredient 500 g/ha, observed 18th to 23rd day, 0 = non-treated, 100 = complete kill
Summary of the method: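 Corn seeds were sown in upland field soil held in a 1/170,000 ha pot and grown to the 2.1 to 3.2 leaf stage. A wettable powder or emulsifiable concentrate of the test compound was diluted with water at 500 L/ha, given 0.1% (v/v) agricultural spreader, and sprayed onto the foliage with a small sprayer. Growth controlling degree (%) was scored visually 18th to 23rd days later, from 0 (non-treated) to 100 (complete kill).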

[17] = system: soybean; assay: Test Example 1: foliage treatment, upland pot test; type: in vivo, Glycine max Merr.; conditions: crop, active ingredient 500 g/ha, observed 18th to 23rd day, 0 = non-treated, 100 = complete kill
Summary of the method: as §3

[18] = system: crabgrass; assay: Test Example 1: foliage treatment, upland pot test; type: in vivo, Digitaria sanguinalis L.; conditions: active ingredient 500 g/ha, observed 18th to 23rd day, 0 = non-treated, 100 = complete kill
[19] = system: corn; assay: Test Example 2: soil surface treatment, upland pot test; type: in vivo, Zea mays L.; conditions: active ingredient 500 g/ha, observed 20th to 28th day
Summary of the method: as §1

[20] = system: redroot pigweed; assay: Test Example 1: foliage treatment, upland pot test; type: in vivo, Amaranthus retroflexus L.; conditions: active ingredient 500 g/ha, observed 18th to 23rd day, 0 = non-treated, 100 = complete kill
[21] = system: velvetleaf; assay: Test Example 2: soil surface treatment, upland pot test; type: in vivo, Abutilon theophrasti MEDIC.; conditions: active ingredient 500 g/ha, observed 20th to 28th day
Summary of the method: as §1

[22] = system: redroot pigweed; assay: as above; type: in vivo, Amaranthus retroflexus L.; conditions: active ingredient 500 g/ha, observed 20th to 28th day
Summary of the method: as §1

| SMILES | Growth controlling degree (%) Green foxtail [1] [%] | Growth controlling degree (%) Prickly sida [2] [%] | Growth controlling degree (%) Crabgrass [3] [%] | Growth controlling degree (%) Green foxtail [4] [%] | Growth controlling degree (%) Rice [6] [%] | Growth controlling degree (%) Barnyardgrass [7] [%] | Growth controlling degree (%) Velvetleaf [8] [%] | Growth controlling degree (%) Rice [10] [%] | Growth controlling degree (%) Barnyardgrass [11] [%] | Growth controlling degree (%) Prickly sida [13] [%] | Growth controlling degree (%) Soyabean [14] [%] | Growth controlling degree (%) Corn [16] [%] | Growth controlling degree (%) Soybean [17] [%] | Growth controlling degree (%) Crabgrass [18] [%] | Growth controlling degree (%) Corn [19] [%] | Growth controlling degree (%) Redroot pigweed [20] [%] | Growth controlling degree (%) Velvetleaf [21] [%] | Growth controlling degree (%) Redroot pigweed [22] [%] | Growth controlling degree (%) Barnyardgrass ([5]; active ingredient 125 g/ha) [%] | Growth controlling degree (%) Japanese bulrush ([9]; active ingredient 125 g/ha) [%] | also measured |
| --- | --- | --- | --- | --- | --- | --- | --- | --- | --- | --- | --- | --- | --- | --- | --- | --- | --- | --- | --- | --- | --- |
| CC(C)C(c1cnccc1C(F)(F)F)N(C)C(=O)Cc1ccc(F)c(C(F)(F)F)c1 (centres unmarked) [I-61] | 70 | 80 | 80 | 90 | 30 | 20 | 80 | 10 | 30 | 98 | 20 | 30 | 70 | 80 | 10 | 70 | 60 | 70 |  |  | Growth controlling degree (%) Barnyardgrass ([5]; active ingredient 250 g/ha): 95%; Growth controlling degree (%) Japanese bulrush ([9]; active ingredient 250 g/ha): 0%; Growth controlling degree (%) Japanese ribbon wapato ([12]; active ingredient 250 g/ha): 20%; Growth controlling degree (%) Rice ([15]; active ingredient 250 g/ha): 10% |
| CC(C)C(c1cnccc1C(F)(F)F)N(C)C(=O)Cc1ccc(C(F)(F)F)c(F)c1 (centres unmarked) [I-62] | 60 | 70 | 98 | 40 | 10 | 60 | 90 | 10 | 20 | 98 | 10 | 10 | 30 | 60 | 10 | 80 | 50 | 70 |  |  | Growth controlling degree (%) Barnyardgrass ([5]; active ingredient 250 g/ha): 98%; Growth controlling degree (%) Japanese bulrush ([9]; active ingredient 250 g/ha): 30%; Growth controlling degree (%) Japanese ribbon wapato ([12]; active ingredient 250 g/ha): 0%; Growth controlling degree (%) Rice ([15]; active ingredient 250 g/ha): 20% |
| CC(C)C(c1cnccc1Cl)N(C)C(=O)Cc1cccc(F)c1 (centres unmarked) [I-65] | 60 | 80 | 90 | 10 | 20 | 60 | 70 | 20 | 10 | 10 | 0 | 0 | 20 | 60 | 30 | 90 | 10 | 50 | 98 | 90 | Growth controlling degree (%) Japanese ribbon wapato ([12]; active ingredient 125 g/ha): 60%; Growth controlling degree (%) Rice ([15]; active ingredient 125 g/ha): 0% |
| CC(C)C(c1cnccc1Cl)N(C)C(=O)Cc1ccccc1F (centres unmarked) [I-66] | 50 | 60 | 90 | 70 | 10 | 80 | 70 | 40 | 20 | 30 | 50 | 40 | 50 | 70 | 10 | 50 | 40 | 60 | 98 | 90 | Growth controlling degree (%) Japanese ribbon wapato ([12]; active ingredient 125 g/ha): 10%; Growth controlling degree (%) Rice ([15]; active ingredient 125 g/ha): 10% |
| CC(C)C(c1cnccc1Cl)N(C)C(=O)Cc1ccc(F)cc1 (centres unmarked) [I-67] | 95 | 80 | 95 | 70 | 10 | 90 | 60 | 10 | 50 | 80 | 10 | 0 | 50 | 90 | 40 | 60 | 60 | 40 | 100 | 98 | Growth controlling degree (%) Japanese ribbon wapato ([12]; active ingredient 125 g/ha): 60%; Growth controlling degree (%) Rice ([15]; active ingredient 125 g/ha): 0% |
